Measurements from patent publication US20040009185A1, “Enhancing the immune response to an antigen by presensitzing with an inducing agent prior to immunizing with the agent and the antigen” (priority 2003, published 2004).

How the values were obtained:
[1] = test system: gp100 (native or modified); format: in vivo, A2Kb transgenic mice; conditions: priming with 20.0 μg toxoid i.m., then ALVAC gp100 recombinant given as a mixture with the toxoid; FIGS. 7 and 8
CEA = format: in vivo, A2Kb transgenic mice; conditions: priming with 20.0 μg toxoid i.m., then ALVAC CEA recombinant given as a mixture with the toxoid; FIG. 6
modified gp100 = test system: modified gp100; set-up: species or system A2Kb transgenic mice; conditions: mouse, in vivo

Q: diphtheria toxoid was tested. Which “immune response to the modified gp100 and gp100 antigens (reactive T cells, IFN gamma ELISPOT)” value [1] did it give?
A: Its value is “clearly enhanced”.

Q: And the “immune response to the CEA antigen (reactive T cells, IFN gamma ELISPOT)” value (CEA)?
A: Its value is “clearly enhanced”.

Q: tetanus toxoid was tested. Which “immune response to the modified gp100 and gp100 antigens (reactive T cells, IFN gamma ELISPOT)” value [1] did it give?
A: The value was “clearly enhanced”.

Q: And the “immune response to the CEA antigen (reactive T cells, IFN gamma ELISPOT)” value (CEA)?
A: The value was “clearly enhanced”.

Q: And the “immune response to the immunogen modified gp100 (gp100-specific CTL response)” value (modified gp100)?
A: Its value is “clearly enhanced”.
